Assay: Radiochemical purity and radiochemical stability of ^68GaPSMA-11 by HPLC
Type: physicochemical
Settings: for [^68Ga] Gallium PSMA-11 (sum of stereosiomers), HPLC / [^68Ga] Gallium free, HPLC / [^68Ga] Gallium main degradant, HPLC: t0 h
Experimental: Radiochemical Purity and Identification of ^68GaPSMA-11 by HPLC
Chromatographic Conditions
Radical Scavenger to be used for the improvement of the radiochemical stability of ^68Ga-PSMA-11, tests were performed according to a varied approach in order to consider all the parameters that may affect the radiochemical purity of the product (activity, pH, volume, amount of Gentisic Acid).
Stability tests were performed on the freeze dried product containing the final formulation. […] Kits manufactured with the final formulation, indeed, were stored at different stability conditions (2-8° C.; 25° C. and 40° C.) and were tested at different time points for API-assay, Radiochemical Purity and Radiochemical Stability of the radiolabelled product. Radiochemical Purity and Stability were assessed only eluting IRE Generator which represented the most stressful condition in terms of Radioactive Concentration (Volumic Activity).

[1] = Gentisic Acid 0 μg, IRE 17.19 mCi, 1 mL, pH 5.24
[2] = Gentisic Acid 200 μg, IRE 17.85 mCi, 1 mL, pH 5.22
[3] = Gentisic Acid 200 μg, IRE 18.07 mCi, 1 mL, pH 5.25
[4] = Gentisic Acid 200 μg, ITG 35.92 mCi, 4 mL, pH 4.83
[5] = Gentisic Acid 400 μg, IRE 17.44 mCi, 1 mL, pH 5.13
[6] = Gentisic Acid 400 μg, IRE 17.79 mCi, 1 mL, pH 5.11
[7] = Gentisic Acid 400 μg, ITG 16.9 mCi, 4 mL, pH 4.85
[8] = Gentisic Acid 400 μg, ITG 31.97 mCi, 4 mL, pH 4.81
[9] = Gentisic Acid 1000 μg, E&Z 15.65 mCi, 5 mL, pH 3.75
[10] = Gentisic Acid 1000 μg, IRE 17.1 mCi, 1 mL, pH 5.08
[11] = Gentisic Acid 1000 μg, ITG 30.9 mCi, 4 mL, pH 4.87
[12] = final formulation kit at Release, E&Z 15.65 mCi, 5 mL, pH 3.75
[13] = final formulation kit at Release, E&Z 16.80 mCi, 5 mL, pH 3.75
[14] = final formulation kit at Release, IRE 32.27 mCi, 1 mL, pH 4.95
[15] = final formulation kit at Release, IRE 32.95 mCi, 1 mL, pH 5.07
[16] = final formulation kit at Release, ITG 29.74 mCi, 4 mL, pH 4.67
[17] = final formulation kit at Release, ITG 30.90 mCi, 4 mL, pH 4.67
[18] = kit stored 3 months at 2-8° C., IRE 25.76 mCi, 1 mL, pH 5.29
[19] = kit stored 3 months at 25° C., IRE 24.56 mCi, 1 mL, pH 5.16
[20] = kit stored 3 months at 40° C., IRE 24.86 mCi, 1 mL, pH 5.23
[21] = kit stored 6 months at 2-8° C., IRE 19.90 mCi, 1 mL, pH 5.13
[22] = kit stored 6 months at 25° C., IRE 18.88 mCi, 1 mL, pH 5.09
[23] = kit stored 6 months at 40° C., IRE 19.34 mCi, 1 mL, pH 5.15

^68Ga-PSMA-11 [[^68Ga] Gallium PSMA-11]
time for which the radiolabelled product is stable with high radiochemical purity (400 μg Gentisic Acid): up to 4 hours | [^68Ga] Gallium PSMA-11 (sum of stereosiomers), HPLC [1]: 92.71% | [^68Ga] Gallium free, HPLC [1]: 0.15% | [^68Ga] Gallium main degradant, HPLC [1]: 6.61% | [^68Ga] Gallium PSMA-11 (sum of stereosiomers), HPLC [2]: 97.76% | [^68Ga] Gallium free, HPLC [2]: 0.00% | [^68Ga] Gallium main degradant, HPLC [2]: 1.83% | [^68Ga] Gallium PSMA-11 (sum of stereosiomers), HPLC [3]: 98.46% | [^68Ga] Gallium free, HPLC [3]: 0.00% | [^68Ga] Gallium main degradant, HPLC [3]: 1.21% | [^68Ga] Gallium PSMA-11 (sum of stereosiomers), HPLC [4]: 99.56% | [^68Ga] Gallium free, HPLC [4]: 0.00% | [^68Ga] Gallium main degradant, HPLC [4]: 0.19% | [^68Ga] Gallium PSMA-11 (sum of stereosiomers), HPLC [5]: 99.29% | [^68Ga] Gallium free, HPLC [5]: 0.00% | [^68Ga] Gallium main degradant, HPLC [5]: 0.71% | [^68Ga] Gallium PSMA-11 (sum of stereosiomers), HPLC [6]: 98.88% | [^68Ga] Gallium free, HPLC [6]: 0.12% | [^68Ga] Gallium main degradant, HPLC [6]: 1.00% | [^68Ga] Gallium PSMA-11 (sum of stereosiomers), HPLC [7]: 99.16% | [^68Ga] Gallium free, HPLC [7]: 0.08% | [^68Ga] Gallium main degradant, HPLC [7]: 0.19% | [^68Ga] Gallium PSMA-11 (sum of stereosiomers), HPLC [8]: 99.35% | [^68Ga] Gallium free, HPLC [8]: 0.00% | [^68Ga] Gallium main degradant, HPLC [8]: 0.16% | [^68Ga] Gallium PSMA-11 (sum of stereosiomers), HPLC [9]: 99.87% | [^68Ga] Gallium free, HPLC [9]: 0.00% | [^68Ga] Gallium main degradant, HPLC [9]: 0.00% | [^68Ga] Gallium PSMA-11 (sum of stereosiomers), HPLC [10]: 99.67% | [^68Ga] Gallium free, HPLC [10]: 0.00% | [^68Ga] Gallium main degradant, HPLC [10]: 0.33% | [^68Ga] Gallium PSMA-11 (sum of stereosiomers), HPLC [11]: 99.80% | [^68Ga] Gallium free, HPLC [11]: 0.01% | [^68Ga] Gallium main degradant, HPLC [11]: 0.02% | [^68Ga] Gallium PSMA-11 (sum of stereosiomers), HPLC [12]: 99.87% | [^68Ga] Gallium free, HPLC [12]: 0.00% | [^68Ga] Gallium main degradant, HPLC [12]: 0.00% | [^68Ga] Gallium PSMA-11 (sum of stereosiomers), HPLC [13]: 99.68% | [^68Ga] Gallium free, HPLC [13]: 0.00% | [^68Ga] Gallium main degradant, HPLC [13]: 0.19% | [^68Ga] Gallium PSMA-11 (sum of stereosiomers), HPLC [14]: 99.58% | [^68Ga] Gallium free, HPLC [14]: 0.00% | [^68Ga] Gallium main degradant, HPLC [14]: 0.00% | [^68Ga] Gallium PSMA-11 (sum of stereosiomers), HPLC [15]: 99.66% | [^68Ga] Gallium free, HPLC [15]: 0.00% | [^68Ga] Gallium main degradant, HPLC [15]: 0.23% | [^68Ga] Gallium PSMA-11 (sum of stereosiomers), HPLC [16]: 99.81% | [^68Ga] Gallium free, HPLC [16]: 0.00% | [^68Ga] Gallium main degradant, HPLC [16]: 0.05% | [^68Ga] Gallium PSMA-11 (sum of stereosiomers), HPLC [17]: 98.80% | [^68Ga] Gallium free, HPLC [17]: 0.01% | [^68Ga] Gallium main degradant, HPLC [17]: 0.02% | [^68Ga] Gallium PSMA-11 (sum of stereosiomers), HPLC [18]: 99.28% | [^68Ga] Gallium free, HPLC [18]: 0.04% | [^68Ga] Gallium main degradant, HPLC [18]: 0.55% | [^68Ga] Gallium PSMA-11 (sum of stereosiomers), HPLC [19]: 99.22% | [^68Ga] Gallium free, HPLC [19]: 0.05% | [^68Ga] Gallium main degradant, HPLC [19]: 0.19% | [^68Ga] Gallium PSMA-11 (sum of stereosiomers), HPLC [20]: 98.92% | [^68Ga] Gallium free, HPLC [20]: 0.07% | [^68Ga] Gallium main degradant, HPLC [20]: 0.26% | [^68Ga] Gallium PSMA-11 (sum of stereosiomers), HPLC [21]: 99.40% | [^68Ga] Gallium free, HPLC [21]: 0.00% | [^68Ga] Gallium main degradant, HPLC [21]: 0.47% | [^68Ga] Gallium PSMA-11 (sum of stereosiomers), HPLC [22]: 99.32% | [^68Ga] Gallium free, HPLC [22]: 0.00% | [^68Ga] Gallium main degradant, HPLC [22]: 0.42% | [^68Ga] Gallium PSMA-11 (sum of stereosiomers), HPLC [23]: 99.21% | [^68Ga] Gallium free, HPLC [23]: 0.04%

From patent publication US20230165980A1, “METHODS FOR RADIOLABELING PSMA BINDING LIGANDS AND THEIR KITS” (Novartis AG, priority 2020, published 2023)
